# Results reported in ChEMBL document CHEMBL1201862, “PubChem BioAssay data set” (2004).
#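 Step 1: Grow cells in 96-well plates. Step 2: Expose to compound for 48 hours at 5 concentrations. Step 3: Interpolate endpoints linearly; if unreached, use highest concentration. The concentration for 50% growth inhibition is given as GI50.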 Active and inactive are the calls of the source. Cut-off read from the data, not from the text of the source: active = GI50 up to about 1.1 µM and inactive = higher.
# What was measured:
# Experiment in all cases: inhibition of tumour cell growth, NCI panel, 48 h
# [1] = test system: 786-0
# [2] = test system: SN12C
# [3] = test system: MOLT-4
# [4] = test system: OVCAR-5
# [5] = test system: HL-60
# [6] = test system: COLO 205
# [7] = test system: NCI-H226
# [8] = test system: SK-OV-3
# [9] = test system: TK-10
# [10] = test system: HCC 2998
# [11] = test system: NCI-H460
# [12] = test system: UACC-257
# [13] = test system: NCI-H23
# [14] = test system: ACHN
# [15] = test system: CAKI-1
# [16] = test system: NCI-H522
# [17] = test system: SF-539
SMILES,GI50 [1],GI50 [2],GI50 [3],GI50 [4],GI50 [5],GI50 [6],GI50 [7],GI50 [8],GI50 [9],GI50 [10],GI50 [11],GI50 [12],GI50 [13],GI50 [14],GI50 [15],GI50 [16],GI50 [17]
O=C(O)CCCNS(=O)(=O)c1ccc2ccccc2c1,> 100 µM (inactive),> 100 µM (inactive),> 100 µM (inactive),> 100 µM (inactive),> 100 µM (inactive),> 100 µM (inactive),> 100 µM (inactive),> 100 µM (inactive),> 100 µM (inactive),> 100 µM (inactive),> 100 µM (inactive),> 100 µM (inactive),> 100 µM (inactive),> 100 µM (inactive),> 100 µM (inactive),> 100 µM (inactive),> 100 µM (inactive)
CC(C)N(C(=O)C12C3C4C5(C#N)C3C1(C#N)C5C42I)C(C)C (centres undefined),> 100 µM (inactive),> 100 µM (inactive),40.8 µM (inactive),> 100 µM (inactive),> 41 µM (inactive),> 45.4 µM (inactive),> 100 µM (inactive),> 100 µM (inactive),> 100 µM (inactive),> 100 µM (inactive),> 53.6 µM (inactive),> 100 µM (inactive),> 100 µM (inactive),> 100 µM (inactive),> 100 µM (inactive),> 33.7 µM (inactive),> 100 µM (inactive)
COC(=O)c1ccc(OCc2ccc3nc(OC)c(OC)nc3c2)cc1,> 100 µM (inactive),> 100 µM (inactive),> 10 µM (inactive),> 100 µM (inactive),> 100 µM (inactive),> 100 µM (inactive),> 100 µM (inactive),–,> 100 µM (inactive),> 100 µM (inactive),> 100 µM (inactive),> 100 µM (inactive),> 100 µM (inactive),> 100 µM (inactive),> 100 µM (inactive),34 µM (inactive),> 100 µM (inactive)
COC(=O)[C@]12CC=C3O[C@@H]4OC5(CCCCC5)O[C@@H]4C3[C@@H]1C(=O)CCC2=O (some centres undefined),> 100 µM (inactive),> 100 µM (inactive),> 100 µM (inactive),> 100 µM (inactive),> 100 µM (inactive),> 100 µM (inactive),> 100 µM (inactive),> 100 µM (inactive),–,> 100 µM (inactive),> 100 µM (inactive),> 100 µM (inactive),> 100 µM (inactive),> 100 µM (inactive),> 100 µM (inactive),83.4 µM (inactive),–
O=C(c1cc2c(C(F)(F)F)onc2c2ccccc12)C(F)(F)F,1.93 µM (inactive),0.614 µM (active),1.15 µM (inactive),6.9 µM (inactive),0.984 µM (active),3.08 µM (inactive),3.01 µM (inactive),12.3 µM (inactive),7.4 µM (inactive),4.55 µM (inactive),1.24 µM (inactive),5.61 µM (inactive),0.929 µM (active),2.89 µM (inactive),2.78 µM (inactive),1.78 µM (inactive),3.75 µM (inactive)
Cc1[nH]c2ccccc2c1C1Cc2ccccc2N1C(=O)C#Cc1ccc([N+](=O)[O-])cc1 (centres undefined),> 100 µM (inactive),> 100 µM (inactive),8.87 µM (inactive),> 100 µM (inactive),> 100 µM (inactive),–,> 100 µM (inactive),> 100 µM (inactive),> 100 µM (inactive),> 100 µM (inactive),> 100 µM (inactive),> 100 µM (inactive),> 100 µM (inactive),> 100 µM (inactive),–,–,> 100 µM (inactive)
C=CCONC(=O)c1ccc(Cl)cc1,> 100 µM (inactive),> 100 µM (inactive),> 100 µM (inactive),> 100 µM (inactive),> 100 µM (inactive),> 100 µM (inactive),–,> 100 µM (inactive),> 100 µM (inactive),> 100 µM (inactive),> 100 µM (inactive),> 100 µM (inactive),> 100 µM (inactive),> 100 µM (inactive),> 100 µM (inactive),> 100 µM (inactive),> 100 µM (inactive)
CN(C)C(=S)/N=c1\sn(C)/c(=N\C(=S)N(C)C)n1C,> 100 µM (inactive),> 100 µM (inactive),> 100 µM (inactive),> 100 µM (inactive),25.1 µM (inactive),> 100 µM (inactive),> 100 µM (inactive),> 100 µM (inactive),> 100 µM (inactive),> 100 µM (inactive),50.6 µM (inactive),> 100 µM (inactive),30.8 µM (inactive),> 100 µM (inactive),> 100 µM (inactive),29.4 µM (inactive),> 100 µM (inactive)
O=C1C2CN(Cc3ccccc3)CC1CN(CC1CC1)C2,> 100 µM (inactive),> 100 µM (inactive),> 100 µM (inactive),> 100 µM (inactive),> 100 µM (inactive),> 100 µM (inactive),> 100 µM (inactive),> 100 µM (inactive),> 100 µM (inactive),–,> 100 µM (inactive),> 100 µM (inactive),> 100 µM (inactive),> 100 µM (inactive),> 100 µM (inactive),> 100 µM (inactive),> 100 µM (inactive)
CC(=O)OCCOCNC(=S)N/N=C/c1ccc([N+](=O)[O-])o1,> 100 µM (inactive),74.5 µM (inactive),–,> 100 µM (inactive),11.6 µM (inactive),15 µM (inactive),98.4 µM (inactive),> 100 µM (inactive),> 100 µM (inactive),40.7 µM (inactive),28.7 µM (inactive),34.4 µM (inactive),26.7 µM (inactive),60.5 µM (inactive),–,64.4 µM (inactive),43.9 µM (inactive)
O=C1C(c2ccccc2)=C(c2ccccc2)C(c2ccc(CCCCCCc3ccc(C4=C(c5ccccc5)C(=O)C(c5ccccc5)=C4c4ccccc4)cc3)cc2)=C1c1ccccc1,> 100 µM (inactive),> 100 µM (inactive),> 100 µM (inactive),> 100 µM (inactive),> 100 µM (inactive),> 100 µM (inactive),–,–,> 100 µM (inactive),> 100 µM (inactive),> 100 µM (inactive),> 100 µM (inactive),> 100 µM (inactive),> 100 µM (inactive),–,> 100 µM (inactive),> 100 µM (inactive)
COc1ccccc1NC(=O)C1=C(C)NC(C)=C(C(=O)Nc2ccccc2OC)C1c1ccc(C(C)C)cc1,> 100 µM (inactive),> 100 µM (inactive),9.18 µM (inactive),> 100 µM (inactive),–,> 100 µM (inactive),> 100 µM (inactive),> 100 µM (inactive),> 100 µM (inactive),63.7 µM (inactive),61.1 µM (inactive),45.2 µM (inactive),> 100 µM (inactive),65.9 µM (inactive),> 100 µM (inactive),–,> 100 µM (inactive)
COc1ccc(/C=N/NS(=O)(=O)c2ccccc2)cc1,> 100 µM (inactive),> 100 µM (inactive),> 100 µM (inactive),> 100 µM (inactive),> 100 µM (inactive),> 100 µM (inactive),> 100 µM (inactive),> 100 µM (inactive),> 100 µM (inactive),> 100 µM (inactive),> 100 µM (inactive),> 100 µM (inactive),> 100 µM (inactive),> 100 µM (inactive),> 100 µM (inactive),–,> 100 µM (inactive)
Cc1nc(-n2nc(-c3ccccc3)cc2-c2ccccc2)sc1C(=O)CC(=O)C(=O)Nc1ccc(Cl)c(Cl)c1,> 100 µM (inactive),91.6 µM (inactive),59.6 µM (inactive),53.8 µM (inactive),> 100 µM (inactive),47.3 µM (inactive),> 100 µM (inactive),51.3 µM (inactive),> 100 µM (inactive),> 100 µM (inactive),71.4 µM (inactive),44.5 µM (inactive),43.1 µM (inactive),25.1 µM (inactive),83 µM (inactive),32.6 µM (inactive),67.1 µM (inactive)
CCc1cccc(C)c1NC(=O)C1=C(C)NC(C)=C(C(=O)Nc2c(C)cccc2CC)C1c1ccc2c(c1)OCO2,16.7 µM (inactive),19.2 µM (inactive),21.2 µM (inactive),22 µM (inactive),21.4 µM (inactive),18.5 µM (inactive),19.8 µM (inactive),48.9 µM (inactive),26.6 µM (inactive),19.7 µM (inactive),16.1 µM (inactive),18.5 µM (inactive),16.5 µM (inactive),15.5 µM (inactive),18.8 µM (inactive),15.9 µM (inactive),19.7 µM (inactive)
O=C1c2cc3c(cc2[C@@H]2NC4CCCC14O2)OCO3 (some centres undefined),> 100 µM (inactive),> 100 µM (inactive),> 100 µM (inactive),> 100 µM (inactive),> 100 µM (inactive),–,> 100 µM (inactive),> 100 µM (inactive),> 100 µM (inactive),–,> 100 µM (inactive),> 100 µM (inactive),> 100 µM (inactive),> 100 µM (inactive),> 100 µM (inactive),> 100 µM (inactive),> 100 µM (inactive)
CS(=O)(=O)N(N(CCCl)S(=O)(=O)c1ccccc1)S(C)(=O)=O,44.7 µM (inactive),> 100 µM (inactive),> 100 µM (inactive),–,> 100 µM (inactive),> 100 µM (inactive),> 100 µM (inactive),–,> 100 µM (inactive),> 100 µM (inactive),86.1 µM (inactive),> 100 µM (inactive),> 100 µM (inactive),> 100 µM (inactive),> 100 µM (inactive),> 100 µM (inactive),38.5 µM (inactive)
